Experimental data: patent US20240325375A1, “Effect of YEL002 on Psychological and Psychiatric Factors in Health and Disease” (RadMit, Inc., priority 2023, published 2024)

System: lymphoma
Assay: Lymphoma incidence in mice (National Institute of Health experiment)
Format: in vivo
Details: reduced from 10-20%
Experimental: In another experiment at the National Institute of Health, in other mice after radiation exposure which caused 90% of them to develop lymphoma, there was a reduction of the lymphoma incidence to 40% and the spontaneous frequency was reduced from 10-20% down to 0%. […] This was observed after treating mice right after birth, if humans are treated later in life it is possible that only 10 or 5 years are added and probably more for DNA repair deficient diseases like ataxia telangiectasia (ATM) which is still very substantial, especially, since it treats and reduces the likelihood of many diseases.

COc1ccc2cc(-c3nc4ccc(C)cn4c3NCc3ccco3)c(=O)[nH]c2c1 [YEL002]
spontaneous lymphoma frequency: 0%
